IC50 data for 14 compounds are collected here from US20210198277A1, “AMINE-SUBSTITUTED ARYL OR HETEROARYL COMPOUNDS” (Epizyme, Inc., priority 2016, published 2021).

Where only a bound is given, the exact number is not on record here.

For one assay, the target named is T1, EHMT1 (Homo sapiens, UniProt Q9H9B1).
T1 sequence (Q9H9B1 1-1298): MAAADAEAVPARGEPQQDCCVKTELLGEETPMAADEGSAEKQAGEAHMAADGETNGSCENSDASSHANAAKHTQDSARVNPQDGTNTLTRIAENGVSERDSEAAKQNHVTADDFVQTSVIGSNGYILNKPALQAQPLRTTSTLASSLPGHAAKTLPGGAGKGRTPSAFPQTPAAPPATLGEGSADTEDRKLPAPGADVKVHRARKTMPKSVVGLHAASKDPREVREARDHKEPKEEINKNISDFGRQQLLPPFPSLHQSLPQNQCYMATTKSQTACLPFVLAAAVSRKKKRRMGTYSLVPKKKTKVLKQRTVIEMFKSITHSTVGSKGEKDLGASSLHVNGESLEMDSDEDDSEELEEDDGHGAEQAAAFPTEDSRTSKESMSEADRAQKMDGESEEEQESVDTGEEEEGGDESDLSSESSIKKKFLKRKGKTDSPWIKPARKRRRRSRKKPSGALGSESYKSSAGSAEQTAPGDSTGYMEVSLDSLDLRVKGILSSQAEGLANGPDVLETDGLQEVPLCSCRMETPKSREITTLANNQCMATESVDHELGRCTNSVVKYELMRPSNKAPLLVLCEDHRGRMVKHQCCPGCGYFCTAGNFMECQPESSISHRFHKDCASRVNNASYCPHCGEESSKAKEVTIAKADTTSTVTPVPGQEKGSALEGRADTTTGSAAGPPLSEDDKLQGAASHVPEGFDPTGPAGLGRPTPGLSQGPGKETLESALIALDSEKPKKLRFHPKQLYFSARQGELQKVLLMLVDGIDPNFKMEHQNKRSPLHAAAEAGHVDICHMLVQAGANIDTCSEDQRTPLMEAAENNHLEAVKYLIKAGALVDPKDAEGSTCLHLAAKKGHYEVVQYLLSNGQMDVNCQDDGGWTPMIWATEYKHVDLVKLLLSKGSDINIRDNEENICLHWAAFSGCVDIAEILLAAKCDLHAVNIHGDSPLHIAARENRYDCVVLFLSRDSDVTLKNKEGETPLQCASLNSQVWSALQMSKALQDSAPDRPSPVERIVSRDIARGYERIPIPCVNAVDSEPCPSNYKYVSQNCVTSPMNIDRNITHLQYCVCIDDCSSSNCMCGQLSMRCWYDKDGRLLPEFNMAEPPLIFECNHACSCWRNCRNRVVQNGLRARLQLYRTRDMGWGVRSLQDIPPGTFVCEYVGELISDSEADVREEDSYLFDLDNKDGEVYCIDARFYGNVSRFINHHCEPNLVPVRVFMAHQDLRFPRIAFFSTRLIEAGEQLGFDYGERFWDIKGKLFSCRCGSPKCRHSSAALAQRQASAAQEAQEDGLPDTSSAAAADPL
Put plainly: EHMT1 enzyme assay on peptide substrate (EHMT1 PEP). Type of assay: biochemical. Particulars: Table VI; read-out: EHMT1 PEP IC50.
By IC50 is commonly meant the concentration needed to halve the response being measured. As for `CNc1cc(C#CCN2CCOCC2)cc2cc(OCCCN3CCCC3)c(OC)cc12` [Compound 784], the IC50 fell in the range of 1 to 10 µM.
Same read-out and setting: the value for `COc1cc2c(C)cc(N3CCOCC3)nc2cc1OCCCN1CCCC1` [Compound 761] was 1 to 10 µM.
Still for that read-out and setting: the value for `CNc1cc(C)nc(Nc2ccc(OC)c(OC[C@H]3CCN(C(C)(C)C)C3)c2)n1` [Compound 610] was greater than 10 µM.

Still in this assay, the particulars now being: Table VII; read-out: EHMT1 PEP IC50.
`CNc1ccnc(Nc2cnc(OC)c(OC[C@@H]3CCN(C4CCC4)C3)c2)n1` [Compound 1098]: the 50% inhibitory concentration (IC50) is less than 0.1 µM.
Consider `CNCC(C)NCc1cc(Nc2nc(C)cc(NC)n2)ccc1OC` (centres unmarked) [Compound 1090], for which the IC50 is 0.1 to 1 µM.
Still for that read-out and setting: the value for `CNc1cc(C2CCOCC2)c2cc(OC)c(OC[C@H](O)CN3CCCC3)cc2n1` [Compound 1107] was less than 0.1 µM; that for `CNc1cc(C)nc(Nc2ccc(OC)c(OC[C@H](O)CN3CCC3)c2)n1` [Compound 1078] was less than 0.1 µM.
As for `CNCCNCc1cc(Nc2nccc(NC)n2)cnc1OC` [Compound 1077], the IC50 is 0.1 to 1 µM.
With `CNc1cc(C)nc(Nc2ccc(OC)c(OC[C@H](O)CNC3CCC3)c2)n1` [Compound 1079], the IC50 is 0.1 to 1 µM.
On the same count and under the same terms, the value for `CNc1ccnc(Nc2ccc(OC)c(OC[C@@H]3CN(C)CCO3)c2)n1` [Compound 1070] was greater than 10 µM.
Same read-out and setting: the value for `CNc1ccnc(Nc2ccc(OC)c(OCC[C@H]3CCCN3)c2)n1` [Compound 1074] was 0.1 to 1 µM; that for `CNc1cc(C)nc(Nc2cnc(OC)c(OC[C@H](O)CN3CCC3)c2)n1` [Compound 1089] was less than 0.1 µM.
`CNc1ccnc(Nc2ccc(OC)c(OCC(C)(O)CN3CCC3)c2)n1` (centres unmarked) [Compound 1057]: the IC50 lay in the range of 0.1 to 1 µM.
On the same count and under the same terms, the value for `CNCC(C)(O)COc1cc(Nc2nccc(OC)n2)ccc1OC` (centres unmarked) [Compound 1058] was greater than 10 µM.
